Measurements taken from PMC5356016, “Suppression of Sin3A activity promotes differentiation of pluripotent cells into functional neurons” (Scientific Reports, 2017).
Blank lines part the entries; values can stand above or below the molecule they belong to. Where no end group is shown, it is not given here.

B1: mouse Sin3A PAH1 (residues 114-195) (domain or fragment, UniProt Q60520 114-195, looked up)
chain: GQQQFQRLKVEDALSYLDQVKLQFGSQPQVYNDFLDIMKEFKSQSIDTPGVISRVSQLFKGHPDLIMGFNTFLPPGYKIEVQ
notes: Sin3A, mouse, paired amphipathic helix 1 (PAH1) domain, residues 114-195
B7: GST-REST, mouse REST (residues 31-120) (domain or fragment, UniProt Q8VIG1 31-120, looked up)
chain: YDLHELSKAELAAPQLIMLANVALTGEASGSCCDYLVGEERQMAELMPVGDNHFSESEGEGLEESADLKGLENMELGSLELSAVEPQPVF
notes: RE1 silencing transcription factor (REST), mouse, residues 31-120

Key:
Shh signaling pathway = assay: Signaling pathway study, Shh pathway inhibitor in Sin3A knockdown P19 cells; format: cell-based, mouse; conditions: 30 μM Cur61414, 10 days; Tuj1 immunocytochemistry, western blot, RT-PCR; at least three experiments
Method: Figure 2 Signaling pathways associated with Sin3A knockdown-induced neurogenesis in P19 cells. (a–c) Sin3A knockdown P19 cells were incubated for 10 days in the absence and presence of an inhibitor for the Wnt pathway, 30 μM NSC668036 or 25 nM PFK118-310. (a) The cells were immunostained with Tuj1 antibody ([…]). (b) Expression levels of β-catenin and Tuj1 were examined by using western blot analysis. (c) Transcriptional levels of Tuj1 and NeuroD1 were examined by using RT-PCR. (d-e) Sin3A knockdown P19 cells were incubated for 10 days in the absence and presence of an inhibitor for the Shh pathway, 30 μM Cur61414. (d) The cells were immunostained with Tuj1 antibody ([…]). (e) The expression level of Tuj1 was examined by using western blot and (f) RT-PCR analyses. All experiments were conducted at least three times.
SMART™ BCA Protein Assay Kit (iNtRON Biot echnology). […]
Sin3A and Sin3B knockdown P19 cells were incubated for 10 days without any treatment. mRNA samples were isolated using an mRNA extraction kit (iNtRON Biotechnology, Inc.) according to the manufacture’s protocol. Samples were analyzed in duplicates on the GeneChip® Mouse Gene 2.0 ST Array (Affymetrix). […]

smoothened (SMO) = system: smoothened (SMO); set-up: method as in PMID 12679522; conditions: Shh signaling pathway; ref [30]; cited from earlier work
Wnt/β-catenin pathway = assay: Signaling pathway study, Wnt/β-catenin pathway inhibitors in Sin3A knockdown P19 cells; format: cell-based, mouse; conditions: for transcriptional level of NeuroD1 (in words): RT-PCR; for neurogenesis inducing capability of Sin3A-silenced cells (in words) / translational level of β-catenin (in words): versus untreated cells; for neurogenesis inducing capability of Sin3A-silenced cells (in words): at least three experiments; for translational level of β-catenin (in words): western blot
[1] = system: PDZ domain of Dishevelled (Dvl/Dsh) protein; conditions: upstream inhibitor for the Wnt/β-catenin pathway; ref [28]; cited from earlier work
[2] = system: complex between Tcf4 and β-catenin; conditions: downstream inhibitor for the Wnt/β-catenin pathway; no reference given; cited from earlier work
P19 cells = assay: Astrocyte differentiation of P19 cells (GFAP and S100); format: cell-based, mouse; conditions: 1 μM retinoic acid, 10 days, untransfected P19 cells; Tuj1, GFAP, S100 immunocytochemistry
[3] = molecular target: B7; assay: ELISA; Sin3A PAH1 and PAH2 with mouse REST (residues 31-120); who was coated is not told for this experiment; conditions: both partners purified
[4] = system: mouse REST (residues 31–120); assay: ELISA binding of Sin3A PAH1 and PAH2 domains to REST; conditions: wells coated with PAH1 or PAH2 (1 μg/mL), GST-REST 0-2 μg/mL, 2 h, mean ± s.d., n = 3
[5] = molecular target: T1, mouse Sin3A PAH2 (residues 295-385) (mouse, UniProt Q60520 295-385); assay: fluorescence polarisation; FITC-labeled Mad1 and SAP25 peptides incubated separately with various concentrations of PAH1 and PAH2; conditions: both partners purified
T1 construct: Sin3A, mouse, paired amphipathic helix 2 (PAH2) domain, residues 295-385
T1 sequence (looked up): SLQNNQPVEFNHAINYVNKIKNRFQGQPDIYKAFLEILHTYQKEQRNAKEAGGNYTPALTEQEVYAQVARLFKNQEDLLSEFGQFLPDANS

[6] = molecular target: B1; assay: ELISA; competition: PAH1 or PAH2 (1 ug/mL) coated wells pre-incubated 2 h with various concentrations of SAP25 or Mad1 peptide, then GST-REST (2 ug/mL) for 2 h; detected with anti-GST antibody and HRP conjugated secondary antibody; conditions: both partners purified
[7] = molecular target: T1, mouse Sin3A PAH2 (residues 295-385); assay: as above; conditions: both partners purified
[8] = molecular target: B1; assay: fluorescence polarisation; FITC-labeled Mad1 and SAP25 peptides incubated separately with various concentrations of PAH1 and PAH2; conditions: both partners purified
[9] = molecular target: T1, mouse Sin3A PAH2 (residues 295-385); assay: ELISA; Sin3A PAH1 and PAH2 with mouse REST (residues 31-120); who was coated is not told for this experiment; conditions: both partners purified

Molecule: COc1cccc(CN(C(=O)CC(C)(C)C)[C@H]2C[C@@H](C(=O)N3CCNCC3)N(Cc3ccc4c(c3)OCO4)C2)c1 [Cur61414]
neurogenesis-inducing ability of Sin3A-knockdown cells (in words) (Shh signaling pathway): greatly reduced
inhibition of smoothened (in words) (smoothened (SMO)): a known inhibitor of smoothened (SMO)

Molecule: CC(NC(=O)C(OC(=O)C(C)NC(=O)OC(C)(C)C)C(C)C)C(=O)OC(C(=O)O)C(C)C (stereo not shown) [NSC668036]
transcriptional level of NeuroD1 (in words) (Wnt/β-catenin pathway; 30 μM NSC668036, 10 days): greatly reduced
neurogenesis inducing capability of Sin3A-silenced cells (in words) (Wnt/β-catenin pathway; 30 μM NSC668036, 10 days): attenuated
translational level of β-catenin (in words) (Wnt/β-catenin pathway; 30 μM NSC668036, 10 days): markedly decreased
binding to PDZ domain and inhibition of Dvl-Frizzled interaction (in words) [1]: binds to the PDZ domain of Dishevelled (Dvl/Dsh) protein, a key component of Wnt signaling, and inhibits its interaction with Frizzled (Fzd)

Molecule: Cn1ncnc2c(=O)n(C)c(=O)nc1-2 [PKF118-310]
transcriptional level of NeuroD1 (in words) (Wnt/β-catenin pathway; 25 nM PKF118-310, 10 days): greatly reduced
neurogenesis inducing capability of Sin3A-silenced cells (in words) (Wnt/β-catenin pathway; 25 nM PKF118-310, 10 days): attenuated
translational level of β-catenin (in words) (Wnt/β-catenin pathway; 25 nM PKF118-310, 10 days): markedly decreased
inhibition of Tcf4/β-catenin complex formation (in words) [2]: blocks the formation of the complex between Tcf4 and β-catenin

Molecule: CC1=C(/C=C/C(C)=C/C=C/C(C)=C/C(=O)O)C(C)(C)CCC1 [RA, retinoic acid]
neurogenesis and astrogenesis of RA-treated P19 cells (in words) (P19 cells): underwent neurogenesis and astrogenesis

Molecule: B1
binding result [3]: binds
binding to REST (in words) [4]: bind with near equal strengths to REST

binding to REST (in words) [4]: bind with near equal strengths to REST
B2: PAH2: mouse Sin3A PAH2 (residues 295–385) (protein)
chain: SLQNNQPVEFNHAINYVNKIKNRFQGQPDIYKAFLEILHTYQKEQRNAKEAGGNYTPALTEQEVYAQVARLFKNQEDLLSEFGQFLPDANS

binding result [5]: binds
B3: FITC-labeled Mad1 peptide (sequence 6-21 of the Mad1 protein) (peptide)
peptide: RMNIQMLLEAADYLER
modifications: also: FITC label, position not given here
notes: Mad1 protein, residues 6-21; where the FITC is attached may be told there; source: synthetic peptide (solid support, Fmoc/t-Bu strategy)

binding result [6]: binds
B4: SAP25 peptide (sequence 171-186 of the SAP25 protein) (peptide)
peptide: AEMIALAGLLQMSQGE
notes: SAP25 protein, residues 171-186; source: synthetic peptide (solid support, Fmoc/t-Bu strategy)

binding result [7]: binds
B5: Mad1 peptide (sequence 6-21 of the Mad1 protein) (peptide)
peptide: RMNIQMLLEAADYLER
notes: Mad1 protein, residues 6-21; source: synthetic peptide (solid support, Fmoc/t-Bu strategy)

binding result [8]: binds
B6: FITC-labeled SAP25 peptide (sequence 171-186 of the SAP25 protein) (peptide)
peptide: AEMIALAGLLQMSQGE
modifications: also: FITC label, position not given here
notes: SAP25 protein, residues 171-186; where the FITC is attached may be told there; source: synthetic peptide (solid support, Fmoc/t-Bu strategy)

Molecule: B7
binding result [9]: binds
